Measurements reported in patent US8791266B2, “Thyroid hormone β receptor agonist” (Mitsubishi Tanabe Pharma Corporation, priority 2009, dated 2014).

What was measured:
[1] = biological target: T1, Human Thyroid Hormone Receptor β1 (TRβ1) (Homo sapiens, UniProt P10828); assay: Transcription activation test of human thyroid hormone receptor β1 (luciferase reporter in 293T cells); assay type: cell-based; conditions: EC50 of transcription activation on TRβ1, 293T cells, luciferase activity after 24 hr; read-out: TRβ
T1 construct: expressed in transfected cells; host or cells: 293T cells
T1 sequence (P10828 1-461): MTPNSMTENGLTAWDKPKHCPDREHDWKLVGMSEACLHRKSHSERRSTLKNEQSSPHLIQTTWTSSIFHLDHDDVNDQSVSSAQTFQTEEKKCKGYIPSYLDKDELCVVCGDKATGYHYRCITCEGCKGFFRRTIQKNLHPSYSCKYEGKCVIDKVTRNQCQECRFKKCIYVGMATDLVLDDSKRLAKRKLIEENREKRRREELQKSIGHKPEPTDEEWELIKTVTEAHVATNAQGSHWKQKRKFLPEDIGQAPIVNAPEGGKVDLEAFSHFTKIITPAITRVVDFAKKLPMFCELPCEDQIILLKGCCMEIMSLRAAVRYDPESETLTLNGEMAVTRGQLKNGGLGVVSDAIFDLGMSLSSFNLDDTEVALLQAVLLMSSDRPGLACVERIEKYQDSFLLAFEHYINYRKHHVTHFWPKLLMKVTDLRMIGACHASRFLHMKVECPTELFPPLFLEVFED
Description: (§1) Transcription Activation Test of Human Thyroid Hormone Receptors α1 (TRα1) and β1 (TRβ1)
(§2) pcDNA3.1 vector (manufactured by Invitrogen) that expresses TRα1 or β1 cloned from human liver-derived cells, and firefly luciferase expression vector pDR4-LuC (manufactured by Stratagene) having a thyroid hormone response sequence to be a reporter were transfected into 293T cells cultured in Dulbecco's modified Eagle medium (DMEM) containing 10% of activated carbon/dextran-treated fetal bovine serum (FBS) by using Lipofectamine2000 (manufactured by Invitrogen). After 16 hr, the cells were plated again in a 96 well plate, and the medium was exchanged with DMEM containing 0.1% activated carbon/dextran-treated FBS. After 3 more hr, a compound diluted with dimethyl sulfoxide solution was added, and the luciferase activity after 24 hr was measured.
(§3) As a positive control, 3,3′,5-triiodo-L-thyronine (T3), which is a biological ligand, was used. The transcription activation action of the compound on TRα1 and TRβ1 was shown by each EC50 value and the maximum luciferase activity value relative to the maximum luciferase activity value of T3 as 100.

[2] = biological target: T2, Human Thyroid Hormone Receptor α1 (TRα1) (Homo sapiens, UniProt P10827); assay: Transcription activation test of human thyroid hormone receptor α1 (luciferase reporter in 293T cells); assay type: cell-based; conditions: ratio TRα/TRβ of the transcription activation EC50 values
T2 construct: expressed in transfected cells; host or cells: 293T cells
T2 sequence (P10827 1-410 isoform P10827-2): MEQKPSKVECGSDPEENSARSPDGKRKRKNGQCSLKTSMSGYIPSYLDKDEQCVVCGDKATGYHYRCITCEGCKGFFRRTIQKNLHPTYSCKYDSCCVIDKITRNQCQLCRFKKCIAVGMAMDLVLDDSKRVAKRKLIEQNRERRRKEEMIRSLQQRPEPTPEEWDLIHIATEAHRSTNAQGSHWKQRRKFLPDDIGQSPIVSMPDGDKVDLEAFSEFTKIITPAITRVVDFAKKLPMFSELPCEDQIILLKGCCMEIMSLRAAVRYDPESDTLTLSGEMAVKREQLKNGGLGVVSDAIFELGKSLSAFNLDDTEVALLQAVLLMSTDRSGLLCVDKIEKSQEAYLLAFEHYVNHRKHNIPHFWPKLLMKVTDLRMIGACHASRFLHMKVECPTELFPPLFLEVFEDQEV
Description: as §1, §2, §3

Compound | EC50 [1] [nM] | selectivity (TRα/TRβ) [2]
Cc1cc(CCC(=O)O)c(C)c(C)c1Cc1ccc(O)c(C2CCCCC2)n1 [Example 26, 3-{4-[(6-cyclohexyl-5-hydroxypyridin-2-yl)methyl]-2,3,5-trimethylphenyl}propanoic acid] | 6 | C (2>(TRα/TRβ))
Cc1cc(OCc2noc(=O)[nH]2)cc(C)c1Cc1ccc(O)c(C(C)C)n1 [Example 27, 3-({4-[(5-hydroxy-6-isopropylpyridin-2-yl)methyl]-3,5-dimethylphenoxy}methyl)-1,2,4-oxadiazol-5(4H)-one] | 0.3 | C (2>(TRα/TRβ))
Cc1cc(OCc2noc(=O)[nH]2)cc(C)c1Cc1ccc(O)c(C2CCCCC2)n1 [Example 28, 3-({4-[(6-cyclohexyl-5-hydroxypyridin-2-yl)methyl]-3,5-dimethylphenoxy}methyl)-1,2,4-oxadiazol-5(4H)-one] | 0.2 | C (2>(TRα/TRβ))
Cc1cc(OCc2noc(=O)[nH]2)cc(C)c1Cc1ccc(O)c(-c2ccc3ccccc3c2)n1 [Example 29, 3-[(4-{[5-hydroxy-6-(2-naphthyl)pyridin-2-yl]methyl}-3,5-dimethylphenoxy)methyl]-1,2,4-oxadiazol-5(4H)-one] | 2 | A (5<(TRα/TRβ))
Cc1cc(OCc2noc(=O)[nH]2)cc(C)c1Cc1ccc(O)c(-c2ccc3c(c2)CCCC3)n1 [Example 30, 3-[(4-{[5-hydroxy-6-(5,6,7,8-tetrahydronaphthalen-2-yl)pyridin-2-yl]methyl}-3,5-dimethylphenoxy)methyl]-1,2,4-oxadiazol-5(4H)-one] | 2 | A (5<(TRα/TRβ))
Cc1cc(OCc2noc(=O)[nH]2)c(C)c(C)c1Cc1ccc(O)c(C(C)C)n1 [Example 31, 3-({4-[(5-hydroxy-6-isopropylpyridin-2-yl)methyl]-2,3,5-trimethylphenoxy}methyl)-1,2,4-oxadiazol-5(4H)-one] | 0.2 | B (2<(TRα/TRβ)<5)
Cc1cc(OCc2noc(=O)[nH]2)c(C)c(C)c1Cc1ccc(O)c(C2CCCC2)n1 [Example 32, 3-({4-[(6-cyclopentyl-5-hydroxypyridin-2-yl)methyl]-2,3,5-trimethylphenoxy}methyl)-1,2,4-oxadiazol-5(4H)-one] | 0.4 | B (2<(TRα/TRβ)<5)
Cc1cc(OCc2noc(=O)[nH]2)c(C)c(C)c1Cc1ccc(O)c(C2CCCO2)n1 (stereo not shown) [Example 33, 3-[(4-{[5-hydroxy-6-(tetrahydrofuran-2-yl)pyridin-2-yl]methyl}-2,3,5-trimethylphenoxy)methyl]-1,2,4-oxadiazol-5(4H)-one] | 8 | B (2<(TRα/TRβ)<5)
Cc1cc(OCc2noc(=O)[nH]2)c(C)c(C)c1Cc1ccc(O)c(C2CCCCC2)n1 [Example 34, 3-({4-[(6-cyclohexyl-5-hydroxypyridin-2-yl)methyl]-2,3,5-trimethylphenoxy}methyl)-1,2,4-oxadiazol-5(4H)-one] | 0.4 | B (2<(TRα/TRβ)<5)
Cc1cc(OCc2noc(=O)[nH]2)c(C)c(C)c1Cc1ccc(O)c(C2CCCCO2)n1 (stereo not shown) [Example 35, 3-[(4-{[5-hydroxy-6-(tetrahydro-2H-pyran-2-yl)pyridin-2-yl]methyl}-2,3,5-trimethylphenoxy)methyl]-1,2,4-oxadiazol-5(4H)-one] | 9 | B (2<(TRα/TRβ)<5)
Cc1cc(OCc2noc(=O)[nH]2)c(C)c(C)c1Oc1ccc(O)c(C(C)C)n1 [Example 36, 3-({4-[(5-hydroxy-6-isopropylpyridin-2-yl)oxy]-2,3,5-trimethylphenoxy}methyl)-1,2,4-oxadiazol-5(4H)-one] | 3 | C (2>(TRα/TRβ))
Cc1cc(OCc2noc(=O)[nH]2)c(F)c(C)c1Cc1ccc(O)c(C(C)C)n1 [Example 37, 3-({2-fluoro^-4-[(5-hydroxy-6-isopropylpyridin-2-yl)methyl]-3,5-dimethylphenoxy}methyl)-1,2,4-oxadiazol-5(4H)-one] | 0.1 | B (2<(TRα/TRβ)<5)
Cc1cc(CC(=O)O)c(C)c(C)c1Cc1ccc(O)c(C2CCCCC2)n1 [Example 41, {4-[(6-cyclohexyl-5-hydroxypyridin-2-yl)methyl]-2,3,5-trimethylphenyl}acetic acid] | 4 | B (2<(TRα/TRβ)<5)
Cc1cc(C(=O)O)c(C)c(C)c1Cc1ccc(O)c(C2CCCCC2)n1 [Example 42, 4-[(6-cyclohexyl-5-hydroxypyridin-2-yl)methyl]-2,3,5-trimethylbenzoic acid] | 300 | B (2<(TRα/TRβ)<5)
Cc1cc(OCC(=O)O)c(C#N)c(C)c1Cc1ccc(O)c(C2CCCCC2)n1 [Example 44, {2-cyano-4-[(6-cyclohexyl-5-hydroxypyridin-2-yl)methyl]-3,5-dimethylphenoxy}acetic acid] | 200 | B (2<(TRα/TRβ)<5)
Cc1nc(OCC(=O)O)c(C)c(C)c1Cc1ccc(O)c(C2CCCCC2)n1 [Example 45, ({5-[(6-cyclohexyl-5-hydroxypyridin-2-yl)methyl]-3,4,6-trimethylpyridin-2-yl}oxy)acetic acid] | 5 | A (5<(TRα/TRβ))
Cc1cc(NC(=O)CC(=O)O)cc(C)c1Cc1ccc(O)c(C2CCCCCC2)n1 [Example 52, 3-({4-[(6-cycloheptyl-5-hydroxypyridin-2-yl)methyl]-3,5-dimethylphenyl}amino)-3-oxopropanoic acid] | 6 | A (5<(TRα/TRβ))

Now from value to compound:

EC50 [1] [nM] | selectivity (TRα/TRβ) [2] | Compound
6 | A (5<(TRα/TRβ)) | Cc1cc(NC(=O)CC(=O)O)c(Cl)c(C)c1Cc1ccc(O)c(C2CCCCC2)n1 [Example 54]
0.6 | A (5<(TRα/TRβ)) | Cc1cccc(-c2nc(Cc3c(C)cc(OCc4noc(=O)[nH]4)c(F)c3C)ccc2O)c1F [Example 60, 3-[(2-fluoro-4-{[6-(2-fluoro-3-methylphenyl)-5-hydroxypyridin-2-yl]methyl}-3,5-dimethylphenoxy)methyl]-1,2,4-oxadiazol-5(4H)-one]
4 | B (2<(TRα/TRβ)<5) | Cc1cc(NCC(=O)O)c(C)c(C)c1Cc1ccc(O)c(C2CCCCC2)n1 [Example 62, N-{4-[(6-cyclohexyl-5-hydroxypyridin-2-yl)methyl]-2,3,5-trimethylphenyl}glycine]
80 | B (2<(TRα/TRβ)<5) | Cc1cc(C(=O)NCC(=O)O)cc(C)c1Cc1ccc(O)c(C2CCCCC2)n1 [Example 64, N-{4-[(6-cyclohexyl-5-hydroxypyridin-2-yl)methyl]-3,5-dimethylbenzoyl}glycine]
10 | A (5<(TRα/TRβ)) | Cc1cc(OCC(=O)O)c(C)c(C)c1Cc1cc(F)c(O)c(C2CCCCC2)n1 [Example 65, {4-[(6-cyclohexyl-4-fluoro-5-hydroxypyridin-2-yl)methyl]-2,3,5-trimethylphenoxy}acetic acid]
0.2 | A (5<(TRα/TRβ)) | Cc1cc(OCC(=O)O)c(C)c(C)c1Cc1nc(C2CCCCC2)c(O)cc1F [Example 73, {4-[(6-cyclohexyl-3-fluoro-5-hydroxypyridin-2-yl)methyl]-2,3,5-trimethylphenoxy}acetic acid]
100 | B (2<(TRα/TRβ)<5) | Cc1cc(OCC(=O)O)c(C)c(C)c1Cc1ccc(O)c(C(=O)N(C)CCc2ccccc2)n1 [Example 80]
0.1 | B (2<(TRα/TRβ)<5) | Cc1cc(-c2cc(O)no2)c(C)c(C)c1Cc1ccc(O)c(C(C)C)n1 [Example 81, 6-[4-(3-hydroxyisoxazol-5-yl)-2,3,6-trimethylbenzyl]-2-isopropylpyridin-3-ol]
1 | A (5<(TRα/TRβ)) | Cc1cc(OCC(=O)O)c(C)c(C)c1Cc1ccc(O)c(C2CCCCCC2)n1 [Example 92, {4-[(6-cycloheptyl-5-hydroxypyridin-2-yl)methyl]-2,3,5-trimethylphenoxy}acetic acid]
